The text below walks through data of the supplement of paper PMC10307832.

What all share (assay): relative viability (nuclei count vs DMSO), 5 days (fraction); higher = more cells survive
Compound in the test “AZD1208 + Foretinib”: N[C@@H]1CCCN(c2c(/C=C3\SC(=O)NC3=O)cccc2-c2ccccc2)C1 [AZD1208] + COc1cc2c(Oc3ccc(NC(=O)C4(C(=O)Nc5ccc(F)cc5)CC4)cc3F)ccnc2cc1OCCCN1CCOCC1 [Foretinib] (partner 0.25 µM)
The essentials:
(§1)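 A single step with final 0.05% Triton X-100, 1% formaldehyde and 1 ug/ml Hoechst fixed the cells and stained nuclei 5 days after treatment. Lung cancer cell lines in 1536-well plates had been treated by pin tool the day after seeding with one drug alone or a fixed anchor-drug dose plus five library-drug doses (not always all listed) in √10 steps, and nuclei were counted on 4× images. Relative viability is the ratio of nuclei in treated wells to nuclei in vehicle wells, taken as the median of duplicate plates.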

Compound in the test “AZD1208 + Crizotinib”: N[C@@H]1CCCN(c2c(/C=C3\SC(=O)NC3=O)cccc2-c2ccccc2)C1 [AZD1208] + C[C@@H](Oc1cc(-c2cnn(C3CCNCC3)c2)cnc1N)c1c(Cl)ccc(F)c1Cl [Crizotinib] (partner 1 µM)
In a few lines: as §1

Compound in the test “XMD14-99 + AZD7762”: CN1CCN(CC1)C2=CC(=C(C=C2)NC3=NC(=C(S3)C(=O)C4=C(C=CC=C4Cl)Cl)N)OC [XMD14-99] + NC(=O)Nc1cc(-c2cccc(F)c2)sc1C(=O)N[C@H]1CCCNC1 [AZD7762] (partner 0.2 µM)
In a few lines: as §1

Compound in the test “XMD14-99 + Vorinostat”: CN1CCN(CC1)C2=CC(=C(C=C2)NC3=NC(=C(S3)C(=O)C4=C(C=CC=C4Cl)Cl)N)OC [XMD14-99] + O=C(CCCCCCC(=O)Nc1ccccc1)NO [Vorinostat] (partner 1 µM)
In a few lines:
as §1

With NCI-H2347, the relative viability turned out to be 0.867 with AZD1208 + Foretinib (first compound 0.08 µM); 0.671 with AZD1208 + Foretinib (first compound 0.253 µM); 0.987 with AZD1208 + Foretinib (first compound 0.8 µM); 0.917 in the test with AZD1208 + Foretinib (first compound 2.53 µM); 0.742 with AZD1208 + Foretinib (first compound 8 µM); 0.626 with AZD1208 + Crizotinib (first compound 0.08 µM). The relative viability was 0.626 with AZD1208 + Crizotinib (first compound 0.253 µM); 0.582 in the test with AZD1208 + Crizotinib (first compound 0.8 µM); 0.648 with AZD1208 + Crizotinib (first compound 2.53 µM); 0.588 with AZD1208 + Crizotinib (first compound 8 µM); 0.814 with XMD14-99 + AZD7762 (first compound 0.08 µM); 0.725 with XMD14-99 + AZD7762 (first compound 0.8 µM). Also, the relative viability with XMD14-99 + AZD7762 (first compound 2.53 µM) is 0.673; with XMD14-99 + AZD7762 (first compound 8 µM), 0.505; with XMD14-99 + Vorinostat (first compound 0.08 µM), 0.533; with XMD14-99 + Vorinostat (first compound 0.8 µM), 0.598; with XMD14-99 + Vorinostat (first compound 2.53 µM) it was 0.455; with XMD14-99 + Vorinostat (first compound 8 µM) it was 0.358.

Turning to NCI-H2405, the relative viability with AZD1208 + Foretinib (first compound 0.08 µM) is 1.03; with AZD1208 + Foretinib (first compound 0.253 µM), 1; with AZD1208 + Foretinib (first compound 0.8 µM) it was 0.991; with AZD1208 + Foretinib (first compound 2.53 µM), 1.06; with AZD1208 + Foretinib (first compound 8 µM), 0.993; with AZD1208 + Crizotinib (first compound 0.08 µM), 0.831. Further, the relative viability worked out at 0.86 with AZD1208 + Crizotinib (first compound 0.253 µM); 0.782 in the test with AZD1208 + Crizotinib (first compound 0.8 µM); 0.81 in the test with AZD1208 + Crizotinib (first compound 2.53 µM); 0.838 with AZD1208 + Crizotinib (first compound 8 µM); 0.745 in the test with XMD14-99 + AZD7762 (first compound 0.08 µM); 0.809 in the test with XMD14-99 + AZD7762 (first compound 0.8 µM). Also, the relative viability with XMD14-99 + AZD7762 (first compound 2.53 µM) was found to be 0.586; in the test with XMD14-99 + AZD7762 (first compound 8 µM) it was 0.479; with XMD14-99 + Vorinostat (first compound 0.08 µM), 1; in the test with XMD14-99 + Vorinostat (first compound 0.8 µM), 1.07; in the test with XMD14-99 + Vorinostat (first compound 2.53 µM) it was 1; with XMD14-99 + Vorinostat (first compound 8 µM), 0.514.

Take NCI-H3122: the relative viability with AZD1208 + Foretinib (first compound 0.08 µM) turned out to be 0.991; with AZD1208 + Foretinib (first compound 0.253 µM) it was 1.05; with AZD1208 + Foretinib (first compound 0.8 µM), 0.924; with AZD1208 + Foretinib (first compound 2.53 µM) it was 1.08; in the test with AZD1208 + Foretinib (first compound 8 µM), 0.945; with AZD1208 + Crizotinib (first compound 0.08 µM), 0.264. Also, the relative viability stood at 0.246 in the test with AZD1208 + Crizotinib (first compound 0.253 µM); 0.241 with AZD1208 + Crizotinib (first compound 0.8 µM); 0.254 in the test with AZD1208 + Crizotinib (first compound 2.53 µM); 0.285 with AZD1208 + Crizotinib (first compound 8 µM); 0.978 in the test with XMD14-99 + AZD7762 (first compound 0.08 µM); 0.893 with XMD14-99 + AZD7762 (first compound 0.8 µM). Also, the relative viability in the test with XMD14-99 + AZD7762 (first compound 2.53 µM) came to 0.936; in the test with XMD14-99 + AZD7762 (first compound 8 µM), 0.555; with XMD14-99 + Vorinostat (first compound 0.08 µM), 0.962; in the test with XMD14-99 + Vorinostat (first compound 0.8 µM), 0.991; in the test with XMD14-99 + Vorinostat (first compound 2.53 µM), 0.923; in the test with XMD14-99 + Vorinostat (first compound 8 µM), 0.707.

For the cell line PC-3 [JPC-3], the relative viability with AZD1208 + Foretinib (first compound 0.08 µM) was found to be 1.11; with AZD1208 + Foretinib (first compound 0.253 µM), 1.06; in the test with AZD1208 + Foretinib (first compound 0.8 µM), 1.14; with AZD1208 + Foretinib (first compound 2.53 µM) it was 1.13; with AZD1208 + Foretinib (first compound 8 µM), 1.04; with AZD1208 + Crizotinib (first compound 0.08 µM), 1.01. The relative viability was 0.996 in the test with AZD1208 + Crizotinib (first compound 0.253 µM); 1.04 with AZD1208 + Crizotinib (first compound 0.8 µM); 1.05 with AZD1208 + Crizotinib (first compound 2.53 µM); 0.982 with AZD1208 + Crizotinib (first compound 8 µM); 0.905 in the test with XMD14-99 + AZD7762 (first compound 0.08 µM); 0.789 in the test with XMD14-99 + AZD7762 (first compound 0.8 µM). Besides, the relative viability with XMD14-99 + AZD7762 (first compound 2.53 µM) is 0.681; with XMD14-99 + AZD7762 (first compound 8 µM) it was 0.553; with XMD14-99 + Vorinostat (first compound 0.08 µM) it was 1.04; with XMD14-99 + Vorinostat (first compound 0.8 µM), 0.843; with XMD14-99 + Vorinostat (first compound 2.53 µM) it was 0.756; in the test with XMD14-99 + Vorinostat (first compound 8 µM) it was 0.539.

For the cell line PC-14, the relative viability with AZD1208 + Foretinib (first compound 0.08 µM) was found to be 1.02; in the test with AZD1208 + Foretinib (first compound 0.253 µM) it was 1.06; with AZD1208 + Foretinib (first compound 0.8 µM) it was 1.06; with AZD1208 + Foretinib (first compound 2.53 µM), 1.04; with AZD1208 + Foretinib (first compound 8 µM), 0.999; in the test with AZD1208 + Crizotinib (first compound 0.08 µM), 0.925. For the same cell line, the relative viability with AZD1208 + Crizotinib (first compound 0.253 µM) was determined as 1.02; in the test with AZD1208 + Crizotinib (first compound 0.8 µM) it was 0.991; in the test with AZD1208 + Crizotinib (first compound 2.53 µM) it was 0.923; with AZD1208 + Crizotinib (first compound 8 µM) it was 0.906; with XMD14-99 + AZD7762 (first compound 0.08 µM) it was 0.37; in the test with XMD14-99 + AZD7762 (first compound 0.8 µM), 0.416. The relative viability with XMD14-99 + AZD7762 (first compound 2.53 µM) came to 0.36; with XMD14-99 + AZD7762 (first compound 8 µM) it was 0.309; with XMD14-99 + Vorinostat (first compound 0.08 µM) it was 0.636; with XMD14-99 + Vorinostat (first compound 0.8 µM) it was 0.628; with XMD14-99 + Vorinostat (first compound 2.53 µM), 0.438; with XMD14-99 + Vorinostat (first compound 8 µM), 0.285.

For the cell line RERF-LC-KJ, the relative viability in the test with AZD1208 + Foretinib (first compound 0.08 µM) amounted to 0.865; with AZD1208 + Foretinib (first compound 0.253 µM), 0.859; with AZD1208 + Foretinib (first compound 0.8 µM), 0.682; in the test with AZD1208 + Foretinib (first compound 2.53 µM), 0.7; with AZD1208 + Foretinib (first compound 8 µM) it was 0.546; in the test with AZD1208 + Crizotinib (first compound 0.08 µM), 0.868. For the same cell line, the relative viability was found to be 0.863 in the test with AZD1208 + Crizotinib (first compound 0.253 µM); 0.835 in the test with AZD1208 + Crizotinib (first compound 0.8 µM); 0.791 with AZD1208 + Crizotinib (first compound 2.53 µM); 0.792 in the test with AZD1208 + Crizotinib (first compound 8 µM); 0.902 with XMD14-99 + AZD7762 (first compound 0.08 µM); 1 with XMD14-99 + AZD7762 (first compound 0.8 µM). For the same cell line, the relative viability came out at 0.86 in the test with XMD14-99 + AZD7762 (first compound 2.53 µM); 0.794 with XMD14-99 + AZD7762 (first compound 8 µM); 0.788 in the test with XMD14-99 + Vorinostat (first compound 0.08 µM); 0.685 in the test with XMD14-99 + Vorinostat (first compound 0.8 µM); 0.553 with XMD14-99 + Vorinostat (first compound 2.53 µM); 0.595 with XMD14-99 + Vorinostat (first compound 8 µM).
